Here are results for 30 compounds from patent publication US20250154154A1 (Relay Binney Street, 2nd Floor, priority 2020, published 2025).

One assay has as its target SRC (Homo sapiens, UniProt P12931). In words: SRC Biochemical Assay Protocol (microfluidic mobility shift assay, FLPeptide4 substrate). In short, it runs like this:
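Recombinant SRC (0.26 nM) preincubated 30 min at RT with compound (0.0017–100 μM) and 1.5 μM FLPeptide4, then 50 μM ATP added; 90 min reaction in HEPES pH 7.4, 10 mM MgCl2, 1% DMSO, EDTA-quenched. Phosphopeptide quantified by microfluidic mobility shift; IC50 from 4-parameter logistic fit.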

The test system of a further assay is RBE cells. In words: Cell Viability Protocol (CellTiterGlo), RBE cells. The class given is cell-based. The conditions noted are these: RBE or SNU-1079 cells, 72 or 120 hour, cell line and time not given. A digest of the protocol:
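RBE cells plated at 1200/well in RPMI 1640 with 10% FBS, incubated 24 h, then dosed with compound from DMSO stocks and incubated 72 or 120 h at 37° C. CellTiterGlo luminescence normalised to DMSO control; IC50 from 4-parameter fit.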
For orientation: Cellular ATP, detected with luciferase, serves as a proxy for viable cell number.

Assay [1] has as its system phospho-S6RP (Ser 235/236) in RBE cells. In words: Cellular Proliferation Protocol (cellular phospho-S6RP HTRF), RBE cells. The class given is cell-based. The conditions noted are these: 6 hours treatment, RBE or SNU-1079 cells, cell line not given. In short, it runs like this:
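RBE cells, 2000/well, seeded 24 h before 6 h compound treatment at 37° C. Lysates were probed with a Eu-cryptate/d2 HTRF antibody sandwich for phospho-S6RP (Ser 235/236), incubated overnight at room temperature. Signal normalised to DMSO control and IC50 fitted to a 4-parameter curve.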
(In general: Time-resolved FRET reads energy transfer from a long-lived donor to a nearby acceptor.)

What is called IC50 is the concentration needed to halve the response being measured. On to `C=CC(=O)N1CCC(N2CC(C#Cc3c(-c4ccc(Oc5ccccc5)cc4)c4c(N)ncnc4n3CCO)C2)CC1` [II-190, 1-(4-(3-((4-amino-7-(2-hydroxyethyl)-5-(4-phenoxyphenyl)-7H-pyrrolo[2,3-d]pyrimidin-6-yl)ethynyl)azetidin-1-yl)piperidin-1-yl)prop-2-en-1-one], for which the half-maximal inhibitory concentration (IC50) is 10 to 1000 nM at SRC, at most 10 nM in the assay with RBE cells and 10 to 1000 nM in assay [1] (6 h).
Regarding `C=CC(=O)N1CC[C@@H](N2CC(C#Cc3c(-c4ccc(Cl)c(C)c4)c4c(N)ncnc4n3C)C2)[C@@H](O)C1` [II-64], the IC50 (on SRC; in the assay on RBE cells; in assay [1]) was 10 to 1000 nM in each case.
On to `C=CC(=O)N1CCC(N2CC(C#Cc3c(-c4ccc(Cl)c(OC)n4)c4c(N)ncnc4n3C(C)C)C2)CC1` [II-327], for which the IC50 at SRC is at most 10 nM; in the assay with RBE cells, 10 to 1000 nM; in assay [1], 10 to 1000 nM.
With `C=CC(=O)N1CC[C@@H](N2CC(C#Cc3c(-c4ccc(Oc5ccccc5)cc4)c4c(N)ncnc4n3C)C2)[C@@H](O)C1` [II-165, 1-((3S,4R)-4-(3-((4-amino-7-methyl-5-(4-phenoxyphenyl)-7H-pyrrolo[2,3-d]pyrimidin-6-yl)ethynyl)azetidin-1-yl)-3-hydroxypiperidin-1-yl)prop-2-en-1-one], the results for the half-maximal inhibitory concentration (IC50) (at SRC; in the assay on RBE cells; in assay [1] (6 h)) were 10 to 1000 nM, at most 10 nM and at most 10 nM, respectively.
Take `C=CC(=O)N1CCC(C#Cc2c(-c3ccc(Oc4ccccc4)cc3)c3c(N)ncnc3n2C(C)c2noc(C)n2)CC1` (stereo not drawn) [Example I-50]: the IC50 (at SRC; in the assay with RBE cells; in assay [1] (6 h)) was 10 to 1000 nM throughout.
On to “1-((3S,4R)-4-(3-((4-amino-7-methyl-5-(4-(1-methyl-cyclopropoxy)phenyl)-7H-pyrrolo[2,3-d]pyrimidin-6-yl)ethynyl)azetidin-1-yl)-3-hydroxypiperidin-1-yl)prop-2-en-1-one [II-17]”, for which the IC50 is 10 to 1000 nM at SRC, at most 10 nM with RBE cells and at most 10 nM in assay [1].
Consider `C=CC(=O)N1CC[C@@H](N2CC(C#Cc3c(-c4ccc(OC5COC5)cc4)c4c(N)ncnc4n3C(C)C)C2)[C@@H](O)C1` [II-57], for which the IC50 is 10 to 1000 nM at SRC, 1000 to 10000 nM in the assay on RBE cells and 1000 to 10000 nM in assay [1].
Turning to `C=CC(=O)N1C[C@@H]2[C@@H](C#Cc3c(-c4ccc(Oc5cccc(C)n5)cc4OC)c4c(N)ncnc4n3CCCS(C)(=O)=O)[C@@H]2C1` [II-52], the values for the IC50 (on SRC; in the assay on RBE cells; in assay [1]) were 10 to 1000 nM, 1000 to 10000 nM and 10 to 1000 nM, respectively.
With `C=CC(=O)N1CC[C@H](N2CC(C#Cc3c(-c4ccc(Cl)c(C)n4)c4c(N)ncnc4n3C(C)C)C2)[C@H](F)C1` [II-328], the IC50 (at SRC; in the assay on RBE cells; in assay [1]) was 10 to 1000 nM each time.
In the case of `C=CC(=O)N1CC[C@@H](N2CC(C#Cc3c(-c4ccc(Oc5ccccc5)c(OC)n4)c4c(N)ncnc4n3C)C2)[C@@H](F)C1` [II-330], the 50% inhibitory concentration (IC50) (at SRC; with RBE cells; in assay [1]) was at most 10 nM in each case.
Take `CN(C)C/C=C/C(=O)N1CCCC(C#Cc2c(-c3ccc(Oc4ccccc4)cc3)c3c(N)ncnc3n2C)CC1` (stereo not drawn) [II-179, (E)-1-(4-((4-amino-7-methyl-5-(4-phenoxyphenyl)-7H-pyrrolo[2,3-d]pyrimidin-6-yl)ethynyl)azepan-1-yl)-4-(dimethylamino) but-2-en-1-one]: the IC50 (at SRC; with RBE cells; in assay [1] (6 h)) was 10 to 1000 nM throughout.
For the compound `C=CC(=O)N1CC[C@@H](N2CC(C#Cc3c(-c4ccc(C(F)(F)F)cc4)c4c(N)ncnc4n3C)C2)[C@@H](O)C1` [II-72], the 50% inhibitory concentration (IC50) (on SRC; with RBE cells; in assay [1]) was 10 to 1000 nM in each case.
For the compound `C=CC(=O)N1CCC(C#Cc2c(-c3ccc(Br)c(OC)c3)c3c(N)ncnc3n2C(C)C)CC1` [II-160, 1-(4-((4-amino-5-(4-bromo-3-methoxyphenyl)-7-isopropyl-7H-pyrrolo[2,3-d]pyrimidin-6-yl)ethynyl)piperidin-1-yl)prop-2-en-1-one], the half-maximal inhibitory concentration (IC50) on SRC is at most 10 nM; in the assay on RBE cells, 10 to 1000 nM; in assay [1] (6 h), 10 to 1000 nM.
In the case of `C=CC(=O)N1CC[C@@H](N2CC(C#Cc3c(-c4ccc(Cl)c(OC)n4)c4c(N)ncnc4n3C)C2)[C@@H](F)C1` [II-320], the IC50 (on SRC; in the assay with RBE cells; in assay [1]) was 10 to 1000 nM each time.
`C=CC(=O)N1CCC(N2CC(C#Cc3c(-c4ccc(Cl)c(CF)c4)c4c(N)ncnc4n3C)C2)CC1` [II-89]: the IC50 (on SRC; with RBE cells; in assay [1]) was 10 to 1000 nM in each case.
In the case of `C=CC(=O)N1CCC(N2CC(C#Cc3c(-c4ccc(Oc5cccc(C)n5)cc4)c4c(N)ncnc4n3C)C2)C[C@H]1CO` (stereo partly drawn) [II-199, 1-((2S)-4-(3-((4-amino-7-methyl-5-(4-(6-methylpyridin-2-yloxy)phenyl)-7H-pyrrolo[2,3-d]pyrimidin-6-yl)ethynyl)azetidin-1-yl)-2-(hydroxymethyl)piperidin-1-yl)prop-2-en-1-one], the half-maximal inhibitory concentration (IC50) (at SRC; with RBE cells; in assay [1] (6 h)) was at most 10 nM each time.
Turning to `C=CC(=O)N1C[C@@H]2[C@@H](C#Cc3c(-c4ccc(Cl)c(OC)n4)c4c(N)ncnc4n3C(C)C)[C@@H]2C1` [II-62], the IC50 at SRC is at most 10 nM; with RBE cells it was 10 to 1000 nM; in assay [1], 10 to 1000 nM.
For `C=CC(=O)N1C[C@@H]2[C@@H](C#Cc3c(-c4ccc(F)c5c4OCO5)c4c(N)ncnc4n3C(C)C)[C@@H]2C1` [II-131], the IC50 (at SRC; in the assay on RBE cells; in assay [1]) was at most 10 nM each time.
Consider `C=CC(=O)N1CC[C@@H](N2CC(C#Cc3c(-c4ccc5c(c4)OCCO5)c4c(N)ncnc4n3C)C2)[C@@H](O)C1` [II-74], for which the IC50 (on SRC; in the assay with RBE cells; in assay [1]) was 10 to 1000 nM in each case.
Turning to `C=CC(=O)N1CCC(N2CC(F)(C#Cc3c(-c4ccc(Oc5ccccc5)cc4)c4c(N)ncnc4n3C)C2)C(O)C1` (stereo not drawn) [III-1], the half-maximal inhibitory concentration (IC50) on SRC is 10 to 1000 nM; in the assay on RBE cells it was at most 10 nM; in assay [1] (6 h), at most 10 nM.
`C=CC(=O)N1CCC(N2CC(C#Cc3c(-c4ccc(F)c5c4OCO5)c4c(N)ncnc4n3C)C2)CC1` [II-120]: the half-maximal inhibitory concentration (IC50) (on SRC; in the assay on RBE cells; in assay [1]) was 10 to 1000 nM in each case.
With `C=CC(=O)N1CCC(N2CC(C#Cc3c(-c4ccc(F)c5c4OCO5)c4c(N)ncnc4n3CC)C2)CC1` [II-290], the IC50 is at most 10 nM on SRC, 10 to 1000 nM in the assay with RBE cells and 10 to 1000 nM in assay [1] (6 h).
`C=CC(=O)N1CCC(N2CC(C#Cc3c(-c4cccc(OC)n4)c4c(N)ncnc4n3C)C2)CC1` [II-92]: the IC50 (at SRC; with RBE cells; in assay [1]) was 10 to 1000 nM throughout.
As for `CN(C)C/C=C/C(=O)N1C[C@@H]2[C@@H](C#Cc3c(-c4ccc(Oc5ccccc5)cc4)c4c(N)ncnc4n3C)[C@@H]2C1` [III-2], the IC50 at SRC is 10 to 1000 nM; with RBE cells, at most 10 nM; in assay [1] it was at most 10 nM.
`Cn1c(C#CC2CCCN(C(=O)/C=C/CN3CC(O)C3)CC2)c(-c2ccc(Oc3ccccc3)cc2)c2c(N)ncnc21` (stereo not drawn) [II-183, (E)-1-(4-((4-amino-7-methyl-5-(4-phenoxyphenyl)-7H-pyrrolo[2,3-d]pyrimidin-6-yl)ethynyl)azepan-1-yl)-4-(3-hydroxyazetidin-1-yl)but-2-en-1-one]: the IC50 at SRC lay in the range of 10 to 1000 nM; with RBE cells, 10 to 1000 nM; in assay [1] (6 h) it was 1000 to 10000 nM.
As to `C=CC(=O)N1CCC(N2CC(C#Cc3c(-c4ccc(Oc5cccc(C)n5)cc4)c4c(N)ncnc4n3C)C2)C(O)C1` (stereo not drawn) [II-215, 1-(4-(3-((4-amino-7-methyl-5-(4-(6-methylpyridin-2-yloxy)phenyl)-7H-pyrrolo[2,3-d]pyrimidin-6-yl)ethynyl)azetidin-1-yl)-3-hydroxypiperidin-1-yl)prop-2-en-1-one], the half-maximal inhibitory concentration (IC50) (on SRC; in the assay with RBE cells; in assay [1] (6 h)) was 10 to 1000 nM in each case.
For the compound `C=CS(=O)(=O)N1CCC(N2CC(C#Cc3c(-c4ccc(Oc5ccccc5)c(OC)n4)c4c(N)ncnc4n3C)C2)CC1` [II-322], the half-maximal inhibitory concentration (IC50) at SRC was at most 10 nM; with RBE cells, 10 to 1000 nM; in assay [1], 10 to 1000 nM.
Consider `C=CC(=O)N1CCC(N2CC(C#Cc3c(-c4ccc(OC(C)C)c(OC)c4)c4c(N)ncnc4n3C)C2)CC1` [II-101], for which the IC50 (at SRC; in the assay with RBE cells; in assay [1]) was 10 to 1000 nM each time.
For the compound `C=CC(=O)N1CCC(N2CC(C#Cc3c(-c4ccc(Oc5cccc(C)n5)c(OC)c4)c4c(N)ncnc4n3C)C2)CC1` [II-81], the half-inhibitory concentration (IC50) (on SRC; with RBE cells; in assay [1]) was 10 to 1000 nM each time.
Turning to `CN(C)C/C=C/C(=O)N1CC2(CC(C#Cc3c(-c4ccc(Oc5ccccc5)cc4)c4c(N)ncnc4n3C3CC(=O)N(C)C3)C2)C1` (stereo not drawn) [II-193, (E)-4-(4-amino-6-((2-(4-(dimethylamino)but-2-enoyl)-2-azaspiro[3.3]heptan-6-yl)ethynyl)-5-(4-phenoxyphenyl)-7H-pyrrolo[2,3-d]pyrimidin-7-yl)-1-methylpyrrolidin-2-one], the half-maximal inhibitory concentration (IC50) is 10 to 1000 nM at SRC, 1000 to 10000 nM with RBE cells and 1000 to 10000 nM in assay [1] (6 h).
